Measurements reported in patent publication US20240366655A1, “COMBINATION DRUG THERAPIES” (CYBIN IRL LIMITED, priority 2021, published 2024).
Like-named read-outs stand apart in the source and are kept apart here.

Key:
[1] = Brain pharmacokinetics and brain to plasma ratio after IV co-administration of DMT and DMT-d10 to male rats (Group 4); assay type: in vivo, Sprague Dawley rats; conditions: for Cmax / Tmax / half-life / Kp: Sprague Dawley, rat; for Cmax / Tmax / AUC0-inf / AUC(0-t) / half-life: brain; for Cmax / Tmax / AUC0-inf / AUC(0-t): Group 4 IV bolus 1 mg/kg, male rats; for Distribution into brain: after IV co-administration; for half-life / Kp: male, 1 mg/kg; for half-life: Group 4 IV, calculated 0.25 to 1 hr; for Kp: brain / plasma, intravenous, read-out: B/P (AUC0-1), brain to plasma ratio
Description: The pharmacokinetics and bioavailability of N,N-dimethyltryptamine (DMT) and 2-(1H-indol-3-yl)-N,N-bis(methyl-d3)ethan-1-amine-1,1,2,2-d4 (DMT-d10) were investigated in rats following intravenous (bolus), oral gavage (OG), and inhalation after co-dose administration.
Sampling collection. PK samples (0.3 mL) were collected from the jugular vein by venepuncture into tubes containing K2EDTA anticoagulant at the following sampling times: Group 1 (IV) and Group 2 (oral) serial plasma collection at 0.083, 0.25, 0.5, 1, 3, 8 and 24 hr postdose; Group 4 (IV) composite plasma and brain collection at 0.083, 0.25, 0.5 and […]; Group 6 (inhalation) serial plasma collection at 0.333, 0.533, 0.833, 1.333, 3.333, 8.333 and 24.333 after start of inhalation.
Brain samples: After extraction of whole brain from the cranium, brains were rinsed, patted dry, weighed, placed into tubes and frozen on dry ice. Thereafter, they were stored at −70 (10°) C pending analysis.
Bioanalysis. Plasma and brain homogenates were analyzed for DMT and DMT-d10 using an established LC-MS/MS assay.) Pharmacokinetic parameters were determined from the DMT and DMT-d10 plasma and brain concentration-time profiles using commercially available software (Phoenix® WinNonlin®).

[2] = biological target: T1, serotonin 5-HT2A receptor (Mus musculus, UniProt P35363); conditions: 1 mg/kg dose, intraperitoneal, rats and mice; cited from earlier work
T1 construct: endogenous in cells; host or cells: living mice (in vivo behavioural assay); receptor endogenous to the animal
T1 sequence (P35363 whole entry): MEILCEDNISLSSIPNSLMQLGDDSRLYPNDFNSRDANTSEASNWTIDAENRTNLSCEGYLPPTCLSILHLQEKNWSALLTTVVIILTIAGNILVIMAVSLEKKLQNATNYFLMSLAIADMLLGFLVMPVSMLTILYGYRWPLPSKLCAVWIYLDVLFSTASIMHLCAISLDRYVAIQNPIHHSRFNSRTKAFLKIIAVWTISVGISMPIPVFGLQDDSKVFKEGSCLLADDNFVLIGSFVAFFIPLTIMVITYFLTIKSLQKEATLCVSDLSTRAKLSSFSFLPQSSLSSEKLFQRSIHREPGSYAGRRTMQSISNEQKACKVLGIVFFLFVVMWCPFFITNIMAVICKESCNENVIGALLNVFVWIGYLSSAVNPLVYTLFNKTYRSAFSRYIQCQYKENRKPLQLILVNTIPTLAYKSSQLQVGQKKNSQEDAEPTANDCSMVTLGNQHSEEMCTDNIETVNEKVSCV

[3] = rats, following intraperitoneal injection; cited from earlier work
[4] = cited from earlier work
[5] = Experiment 6: blood neurotrophic and endocrine biomarkers after DMT+N2O in healthy human participants; conditions: DMT 0.1, 0.2, 0.4 mg/kg
Description: General experimental design. The proposed studies aim to define proof-of-concept synergistic interactions of inhalational DMT fumarate with N2O, or IV DMT fumarate administered as a bolus over 30 seconds. Healthy adult participants will be exposed to either inhalational DMT in 20-25% N2O in oxygen as the carrier gas, or inhalational DMT in oxygen alone as the carrier gas in a blinded manner, or IV DMT while inhaling 20-25% N2O in oxygen, or oxygen.
Pre-study: Baseline measurements of heart rate, body temperature and blood pressure will be made. An IV cannula will be inserted into a forearm vein for blood sampling and to allow administration of DMT as a bolus in the IV condition. Participants will be allowed to relax for 30 min before the drug session. Study session: Participants will receive administration of either 20-25% N2O in oxygen, or oxygen alone, for 10 minutes prior to the administration of a high, medium or low dose of inhalational or IV DMT (0.4, 0.2, 0.1 mg/kg) over the course of 30 sec-1 minute. […]
Baseline blood samples will be drawn 30 minutes before N2O or oxygen administration, and after 8 mins of N2O or oxygen administration for endocrine markers of HPA axis activation: corticotropin, β-endorphin, prolactin, GH and cortisol levels. Further blood samples will be drawn, and vital signs measured 2, 15, 60 and 120 minutes after DMT administration. […]

[6] = Plasma pharmacokinetics of co-administered DMT and DMT-d10 by intravenous (bolus), oral gavage and inhalation administration to male rats; conditions: for time of peak plasma concentration postdose: after oral administration; for mean residence time (MRT) after inhalation compared to IV administration: inhalation vs IV; for F: calculated from dose normalized AUC0-1 mean values vs Group 4 IV; for bioavailability / Tmax / half-life / AUC(0-t) / AUC0-inf / Cmax / MRT last / AUC0-1/dose / t1/2: plasma
[7] = human, IV bolus of DMT (as fumarate salt), 0.05-0.4 mg/kg
[8] = inhalation, DMT 15.3 mg/kg, DMT-d10 14.7 mg/kg
[9] = male, Sprague Dawley, rat, inhaled
[10] = male, Sprague Dawley, rat, inhaled or intranasal
[11] = male, Sprague Dawley, rat, inhaled or intranasal, AUC0-1, plasma, Group 6 inhalation, DMT 15.3 mg/kg, DMT-d10 14.7 mg/kg
[12] = male, Sprague Dawley, rat, inhaled or intranasal, AUC0-1, plasma, inhalation, DMT 15.3 mg/kg, DMT-d10 14.7 mg/kg (summary table)
[13] = male, Sprague Dawley, rat, inhaled or intranasal, AUC0-t, Group 6 inhalation, DMT 15.3 mg/kg, DMT-d10 14.7 mg/kg
[14] = male, Sprague Dawley, rat, iv, 1 mg/kg
[15] = male, Sprague Dawley, rat, iv, 1 mg/kg, AUC0-1, plasma, 1 mg/kg (summary table)
[16] = male, Sprague Dawley, rat, iv, 1 mg/kg, AUC0-1, plasma, Group 4 IV bolus, 1 mg/kg, male rats
[17] = male, Sprague Dawley, rat, iv, 1 mg/kg, AUC0-t, Group 4 IV bolus, 1 mg/kg, male rats
[18] = male, Sprague Dawley, rat, po, 10 mg/kg
[19] = male, Sprague Dawley, rat, po, 10 mg/kg, AUC0-1, plasma, 10 mg/kg (summary table)
[20] = male, Sprague Dawley, rat, po, 10 mg/kg, AUC0-1, plasma, Group 2 oral gavage (OG), 10 mg/kg, male rats
[21] = male, Sprague Dawley, rat, po, 10 mg/kg, AUC0-t, Group 2 oral gavage (OG), 10 mg/kg, male rats
[22] = inhalation, calculated 0.333 to 3.333 hr (summary table)
[23] = intravenous 1 mg/kg, calculated 0.083 to 1.0 hr (summary table)

With `CN(C)CCc1c[nH]c2ccccc12` [DMT, N,N-dimethyltryptamine] the Cmax [1] was 3430 ng/g, the Tmax [1] was 5 min and the Distribution into brain [1] was “high”. For the same molecule, the AUC0-inf [1] was 1070 ng·h/g, the AUC(0-t) [1] was 1060 ng·h/g and the half-life [1] was 9.3 min. The Kp [1] was 9, the “hallucinogenic effect as measured by head-twitch responses (HTRs)” value [2] was “sub-hallucinogenic” and the half-life [3] was 5 to 15 min. For the same molecule, the “time to be metabolized and cleared from brain, liver, and plasma” value [3] was at most 1 h, the half-life ([4]; administered intravenously) was “around 15 minutes” and the “time to peak plasma concentrations” value ([4]; administered intravenously) was “approximately 2 minutes”. For the same molecule, the subjective effects ([4]; human, 0.1 mg/kg IV) was “not hallucinogenic”, the subjective effects ([4]; human, 0.2 and 0.4 mg/kg IV) was “nearly instantaneous onset of visual hallucinatory phenomena, bodily dissociation, and extreme shifts in mood” and the “peak of psycho-biological effects after administration” value [4, 7] was 120 seconds. For the same molecule, the “time by which psycho-biological effects resolve” value [4, 7] was at most 30 minutes, the duration of effect ([4]; vaporized DMT) was “less than 30 min” and the “levels of VEGF and BDNF in blood” value [5] was “dose-dependently increased levels”. For the same molecule, the “time of highest plasma concentration (first time point taken)” value (“time of highest plasma concentration” below) ([6]; after IV bolus) was 0.083 h, the “time of highest plasma concentration” value ([6]; after inhalation) was 0.333 h and the “time of peak plasma concentration postdose” value [6] was 1 h. For the same molecule, the “mean residence time (MRT) after inhalation compared to IV administration” value [6] was “approximately 2 ×”, the F [6, 8] was 15.3% and the bioavailability [6, 9] was 15.3%. It also gave a Tmax [6, 10] of 20 min, a half-life [6, 10] of 19.7 min and an AUC(0-t) [6, 11] of 265 ng·h/mL. The AUC(0-t) [6, 12] was 265 ng·h/mL, the AUC(0-t) [6, 13] was 300 ng·h/mL and the AUC0-inf [6, 14] was 115 ng·h/mL. It also gave a Cmax [6, 14] of 314 ng/mL, an MRT last [6, 14] of 0.227 h and a half-life [6, 14] of 10.1 min. For the same molecule, the AUC(0-t) [6, 15] was 113 ng·h/mL, the AUC(0-t) [6, 16] was 113 ng·h/mL and the AUC(0-t) [6, 17] was 113 ng·h/mL. It also gave a Cmax [6, 18] of 28 ng/mL, an MRT last [6, 18] of 2.87 h and a Tmax [6, 18] of 60 min. It also gave a bioavailability [6, 18] of 1.2%, an AUC(0-t) [6, 19] of 13.7 ng·h/mL and an AUC(0-t) [6, 20] of 13.7 ng·h/mL. For the same molecule, the AUC(0-t) [6, 21] was 65 ng·h/mL, the F ([6]; oral gavage 10 mg/kg) was 1.2% and the AUC0-1/dose [6, 8] was 17.3. It also gave a t1/2 [6, 22] of 19.7 min, a t1/2 [6, 23] of 10.1 min and an AUC0-1/dose ([6]; intravenous, 1 mg/kg) of 113. The AUC0-1/dose ([6]; oral, 10 mg/kg) was 1.37.

For `[2H]C([2H])([2H])N(C([2H])([2H])[2H])C([2H])([2H])C([2H])([2H])c1c[nH]c2ccccc12` [DMT-d10, 2-(1H-indol-3-yl)-N,N-bis(methyl-d3)ethan-1-amine-1,1,2,2-d4], the “improvement of brain to plasma (B/P) ratio by deuteration” value ([1]; DMT-d10 vs. DMT, IV) was “approximately 50%”, the Cmax [1] was 1490 ng/g and the Tmax [1] was 5 min. For the same molecule, the Distribution into brain [1] was “high”, the AUC0-inf [1] was 1290 ng·h/g and the AUC(0-t) [1] was 931 ng·h/g. For the same molecule, the half-life [1] was 33.9 min, the Kp [1] was 14 and the “increase of inhalation bioavailability by deuteration” value ([6]; DMT-d10 vs. DMT) was “approximately 60%”. For the same molecule, the “time of highest plasma concentration” value ([6]; after IV bolus) was 0.083 h, the “time of highest plasma concentration” value ([6]; after inhalation) was 0.333 h and the “time of peak plasma concentration postdose” value [6] was 1 h. For the same molecule, the “mean residence time (MRT) after inhalation compared to IV administration” value [6] was “approximately 2 ×”, the F [6, 8] was 24.3% and the bioavailability [6, 9] was 24.3%. It also gave a Tmax [6, 10] of 20 min, a half-life [6, 10] of 23.7 min and an AUC(0-t) [6, 11] of 267 ng·h/mL. The AUC(0-t) [6, 12] was 267 ng·h/mL, the AUC(0-t) [6, 13] was 361 ng·h/mL and the AUC0-inf [6, 14] was 92.6 ng·h/mL. It also gave a Cmax [6, 14] of 148 ng/mL, an MRT last [6, 14] of 0.348 h and a half-life [6, 14] of 26.5 min. The AUC(0-t) [6, 15] was 74.6 ng·h/mL, the AUC(0-t) [6, 16] was 74.6 ng·h/mL and the AUC(0-t) [6, 17] was 74.6 ng·h/mL. For the same molecule, the Cmax [6, 18] was 20.8 ng/mL, the MRT last [6, 18] was 3.69 h and the Tmax [6, 18] was 60 min. It also gave a bioavailability [6, 18] of 1.2%, an AUC(0-t) [6, 19] of 8.78 ng·h/mL and an AUC(0-t) [6, 20] of 8.78 ng·h/mL. For the same molecule, the AUC(0-t) [6, 21] was 77.2 ng·h/mL, the F ([6]; oral gavage 10 mg/kg) was 1.2% and the Cmax ([6]; Group 4 IV bolus, 1 mg/kg, male rats) was 148 ng/mL. It also gave an AUC0-1/dose [6, 8] of 18.2, a t1/2 [6, 22] of 23.7 min and a t1/2 [6, 23] of 26.5 min. It also gave an AUC0-1/dose ([6]; intravenous, 1 mg/kg) of 74.6 and an AUC0-1/dose ([6]; oral, 10 mg/kg) of 0.878.
